Legend:
[1] = system: mitochondrial transcription (7S RNA) in HeLa cells; assay: Quantitative real time-PCR assay of inhibition of mitochondrial transcription (cellular qPCR assay IMT); format: cell-based; conditions: Homo sapiens, 4 h compound incubation, qRT-PCR according to Example 5, activity class
Procedure: Quantitative real-time PCR (qRT-PCR), based on the TagMan™ (Thermo Fisher Scientific, Waltham Mass.) technology, was carried out essentially as described in (Heid et al., 1996). HeLa cells were plated one day before compound treatment in RPMI medium supplemented with 10% Fetal Calf Serum and 2 mM L-glutamine. Cells were incubated with dilution series of compounds or vehicle (DMSO) for 4 h, prior to harvest and extraction of the RNA using the RNeasy Mini Kit (Qiagen, Hilden D), according to the manufacturer's instructions. RNA concentrations were measured spectroscopically, using a NanoDrop-2000 (Thermo Fisher Scientific, Waltham Mass.) and normalized prior to cDNA synthesis, using a ‘High-Capacity cDNA Reverse Transcription Kit’ (Thermo Fisher Scientific, Waltham Mass.). qRT-PCR was carried out using the ‘TaqMan Fast Advance Master Mix’ (Thermo Fisher Scientific, Waltham Mass.) on a 7500 Fast Real-Time PCR machine (Applied Biosystems, Foster City Calif.)
For these measurements, three genes were used to compare the effect of the scrutinized compounds in relation to their concentration. The POLRMT-gene was used to detect potential influences on nuclear transcription. Mitochondrial transcription in vivo was monitored by measurements 7S RNA. The TBP (TATA-box binding protein) gene was employed as the control (housekeeping gene) during qRT-PCR. The short-lived mitochondrial 7S RNA, which is not post-transcriptionally stabilized, allowed us to monitor rapid changes in mitochondrial transcription activity following compound addition. Biological triplicates were analyzed using the comparative CT Method (ΔΔCt) method (Bubner and Baldwin, 2004) and reported as Rq % values (Rq=Relative quantification=2-ΔΔCt).

[2] = target: mitochondrial RNA-polymerase (POLRMT) (Mus musculus, UniProt Q8BKF1); assay: Homogeneous TR-FRET assay for mitochondrial transcription activity; format: biochemical; conditions: homogeneous TR-FRET assay according to Example 4; activity class
Sequence of mitochondrial RNA-polymerase (POLRMT) (Q8BKF1 42-1207): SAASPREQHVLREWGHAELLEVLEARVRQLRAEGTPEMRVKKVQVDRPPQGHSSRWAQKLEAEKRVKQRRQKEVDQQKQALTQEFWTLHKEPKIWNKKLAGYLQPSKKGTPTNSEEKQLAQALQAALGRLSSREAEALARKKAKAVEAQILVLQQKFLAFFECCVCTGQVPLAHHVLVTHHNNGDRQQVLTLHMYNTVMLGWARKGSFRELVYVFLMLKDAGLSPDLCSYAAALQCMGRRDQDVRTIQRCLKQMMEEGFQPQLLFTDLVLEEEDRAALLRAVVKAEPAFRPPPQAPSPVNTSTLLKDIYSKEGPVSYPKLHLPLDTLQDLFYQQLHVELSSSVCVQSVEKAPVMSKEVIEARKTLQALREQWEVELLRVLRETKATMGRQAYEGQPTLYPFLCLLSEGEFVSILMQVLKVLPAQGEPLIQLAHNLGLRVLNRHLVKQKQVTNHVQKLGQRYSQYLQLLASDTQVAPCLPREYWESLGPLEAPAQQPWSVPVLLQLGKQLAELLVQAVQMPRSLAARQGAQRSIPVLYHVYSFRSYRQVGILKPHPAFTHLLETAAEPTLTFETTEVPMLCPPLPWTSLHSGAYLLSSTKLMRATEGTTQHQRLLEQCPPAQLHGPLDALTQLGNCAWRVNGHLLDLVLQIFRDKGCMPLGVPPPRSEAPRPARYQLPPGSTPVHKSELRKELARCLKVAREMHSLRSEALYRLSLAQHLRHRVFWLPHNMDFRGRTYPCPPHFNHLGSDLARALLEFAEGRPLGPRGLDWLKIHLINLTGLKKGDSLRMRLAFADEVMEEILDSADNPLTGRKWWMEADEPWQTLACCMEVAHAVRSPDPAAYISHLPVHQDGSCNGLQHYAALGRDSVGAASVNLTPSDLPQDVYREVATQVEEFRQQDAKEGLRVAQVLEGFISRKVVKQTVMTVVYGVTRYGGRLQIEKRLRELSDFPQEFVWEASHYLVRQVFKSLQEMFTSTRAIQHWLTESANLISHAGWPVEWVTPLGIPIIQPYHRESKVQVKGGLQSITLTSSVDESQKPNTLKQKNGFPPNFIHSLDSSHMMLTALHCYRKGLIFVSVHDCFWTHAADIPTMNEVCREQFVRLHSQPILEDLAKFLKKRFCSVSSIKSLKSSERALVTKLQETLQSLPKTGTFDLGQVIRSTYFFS
Outline: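 TR-FRET read-out (340 nm excitation, 665 nm emission) of a 407 bp transcript captured by Eu-streptavidin/biotin donor and ATTO647N acceptor DNA probes after EDTA stop. Transcription ran 2 h at RT with 500 μM […], mouse POLRMT/TFAM/TFB2M and LSP-plasmid template, after 10 min compound preincubation (10 μM or dilution series).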

SMILES | IC50 [1] [nM] | IC50 [2] [nM]
CC(C)OC(=O)[C@H]1CCCN(C(=O)[C@@H](C)Oc2ccc3c(-c4ccc(F)cc4Cl)cc(=O)oc3c2)C1 [Compound 117, isopropyl (3S)-1-[(2R)-2-[4-(2-chloro-4-fluoro-phenyl)-2-oxo-chromen-7-yl]oxypropanoyl] piperidine-3-carboxylate] | 50 to 500 | 20 to 100
C[C@@H](Oc1ccc2c(-c3ccc(F)cc3Cl)cc(=O)oc2c1)C(=O)N1CCC[C@H](C(=O)OC(C)(C)C)C1 [Compound 118, tert-butyl (3S)-1-[(2R)-2-[4-(2-chloro-4-fluoro-phenyl)-2-oxo-chromen-7-yl]oxypropanoyl] piperidine-3-carboxylate] | 50 to 500 | 20 to 100
CCCCCCCOC(=O)[C@H]1CCCN(C(=O)[C@@H](C)Oc2ccc3c(-c4ccc(F)cc4Cl)cc(=O)oc3c2)C1 [Compound 120, heptyl (3S)-1-[(2R)-2-[4-(2-chloro-4-fluoro-phenyl)-2-oxo-chromen-7-yl]oxypropanoyl] piperidine-3-carboxylate] | < 10 | 100 to 1000
CC(C)OC(=O)OCOC(=O)[C@H]1CCCN(C(=O)[C@@H](C)Oc2ccc3c(-c4ccc(F)cc4Cl)cc(=O)oc3c2)C1 [Compound 121, (S)-((isopropoxycarbonyl)oxy)methyl 1-((R)-2-((4-(2-chloro-4-fluorophenyl)-2-oxo-2H-chromen-7-yl)oxy)propanoyl)piperidine-3-carboxylate] | < 10 | 20 to 100
CNC(=O)[C@H]1CCCN(C(=O)[C@@H](C)Oc2ccc3c(-c4ccc(F)cc4Cl)cc(=O)oc3c2)C1 [Compound 122] | < 10 | 20 to 100
CC(C)OC(=O)C[C@H]1CCCN(C(=O)[C@@H](C)Oc2ccc3c(-c4ccc(F)cc4Cl)cc(=O)oc3c2)C1 [Compound 123, isopropyl 2-[(3R)-1-[(2R)-2-[4-(2-chloro-4-fluoro-phenyl)-2-oxo-chromen-7-yl]oxypropanoyl]-3-piperidyl]acetate] | < 10 | 20 to 100
C[C@@H](Oc1ccc2c(-c3ccc(F)cc3Cl)cc(=O)oc2c1)C(=O)N1CCC[C@H](CC(=O)OC(C)(C)C)C1 [Compound 124, tert-butyl 2-[(3R)-1-[(2R)-2-[4-(2-chloro-4-fluoro-phenyl)-2-oxo-chromen-7-yl]oxypropanoyl]-3-piperidyl]acetate] | < 10 | 20 to 100
C[C@@H](Oc1ccc2c(-c3ccc(F)cc3Cl)cc(=O)oc2c1)C(=O)N1CCC[C@H](CC(=O)OCCN2CCOCC2)C1 [Compound 125] | < 10 | < 20
CCCCCCCOC(=O)C[C@H]1CCCN(C(=O)[C@@H](C)Oc2ccc3c(-c4ccc(F)cc4Cl)cc(=O)oc3c2)C1 [Compound 126, heptyl 2-[(3R)-1-[(2R)-2-[4-(2-chloro-4-fluoro-phenyl)-2-oxo-chromen-7-yl]oxypropanoyl]-3-piperidyl]acetate] | < 10 | 100 to 1000
CC(C)OC(=O)OCOC(=O)C[C@H]1CCCN(C(=O)[C@@H](C)Oc2ccc3c(-c4ccc(F)cc4Cl)cc(=O)oc3c2)C1 [Compound 127, isopropoxycarbonyloxymethyl 2-[(3R)-1-[(2R)-2-[4-(2-chloro-4-fluoro-phenyl)-2-oxo-chromen-7-yl]oxypropanoyl]-3-piperidyl]acetate] | < 10 | 20 to 100
CNC(=O)C[C@H]1CCCN(C(=O)[C@@H](C)Oc2ccc3c(-c4ccc(F)cc4Cl)cc(=O)oc3c2)C1 [Compound 128, 2-[(3R)-1-[(2R)-2-[4-(2-chloro-4-fluoro-phenyl)-2-oxo-chromen-7-yl]oxypropanoyl]-3-piperidyl]-N-methyl-acetamide] | < 10 | < 20
COC(=O)[C@H]1CN(C(=O)[C@@H](C)Oc2ccc3c(-c4ccc(F)cc4Cl)cc(=O)oc3c2)CCN1 [Compound 136, methyl (2R)-4-[(2R)-2-[4-(2-chloro-4-fluoro-phenyl)-2-oxo-chromen-7-yl]oxypropanoyl]piperazine-2-carboxylate] | 10 to 50 | 20 to 100
C[C@@H](Oc1ccc2c(-c3ccc(F)cc3Cl)cc(=O)oc2c1)C(=O)Nc1cccc(C(=O)O)c1 [Compound 139, 3-[[(2R)-2-[4-(2-chloro-4-fluoro-phenyl)-2-oxo-chromen-7-yl]oxypropanoyl]amino]benzoic acid] | 50 to 500 | < 20
C[C@@H](Oc1ccc2c(-c3ccc(F)cc3Cl)cc(=O)oc2c1)C(=O)Nc1ccc(C(=O)O)cc1 [Compound 141, 4-[[(2R)-2-[4-(2-chloro-4-fluoro-phenyl)-2-oxo-chromen-7-yl]oxypropanoyl]amino]benzoic acid] | 50 to 500 | < 20
C[C@@H](Oc1ccc2c(-c3ccc(F)cc3Cl)cc(=O)oc2c1)C(=O)N1CC[C@H](CC(=O)O)C1 [Compound 145, 2-[(3R)-1-[(2R)-2-[4-(2-chloro-4-fluoro-phenyl)-2-oxo-chromen-7-yl]oxypropanoyl]pyrrolidin-3-yl]acetic acid] | < 10 | 20 to 100
C[C@@H](Oc1ccc2c(-c3ccc(F)cc3Cl)cc(=O)oc2c1)C(=O)N1CC[C@@H](CC(=O)O)C1 [Compound 147, 2-[(3S)-1-[(2R)-2-[4-(2-chloro-4-fluoro-phenyl)-2-oxo-chromen-7-yl]oxypropanoyl]pyrrolidin-3-yl]acetic acid] | 10 to 50 | < 20
COC(=O)c1cccc(NC(=O)[C@@H](C)Oc2ccc3c(-c4ccc(F)cc4Cl)cc(=O)oc3c2)n1 [Compound 149, methyl 6-[[(2R)-2-[4-(2-chloro-4-fluoro-phenyl)-2-oxo-chromen-7-yl]oxypropanoyl]amino]pyridine-2-carboxylate] | 50 to 500 | 20 to 100
C[C@@H](Oc1ccc2c(-c3ccc(F)cc3Cl)cc(=O)oc2c1)C(=O)Nc1ccc(C(=O)O)cn1 [Compound 155, 6-[[(2R)-2-[4-(2-chloro-4-fluoro-phenyl)-2-oxo-chromen-7-yl]oxypropanoyl]amino]pyridine-3-carboxylic acid] | < 10 | < 20
C[C@@H](Oc1ccc2c(-c3ccc(F)cc3Cl)cc(=O)oc2c1)C(=O)N1CC[C@H](C(=O)O)C1 [Compound 159, (3S)-1-[(2R)-2-[4-(2-chloro-4-fluoro-phenyl)-2-oxo-chromen-7-yl]oxypropanoyl]pyrrolidine-3-carboxylic acid] | 500 to 5000 | 20 to 100
C=CC(=O)N1CCN(C(=O)[C@@H](C)Oc2ccc3c(-c4ccc(F)cc4Cl)cc(=O)oc3c2)CC1 [Compound 164, 4-(2-chloro-4-fluoro-phenyl)-7-[(1R)-1-methyl-2-oxo-2-(4-prop-2-enoylpiperazin-1-yl)ethoxy]chromen-2-one] | < 10 | < 20
C=CC(=O)N[C@H]1CCCN(C(=O)[C@@H](C)Oc2ccc3c(-c4ccc(F)cc4Cl)cc(=O)oc3c2)C1 [Compound 165, N-[(3S)-1-[(2R)-2-[4-(2-chloro-4-fluoro-phenyl)-2-oxo-chromen-7-yl]oxypropanoyl]-3-piperidyl]prop-2-enamide] | < 10 | < 20
C[C@@H](Oc1ccc2c(-c3ccc(F)cc3Cl)cc(=O)oc2c1)C(=O)N1CCN(C(=O)CCl)CC1 [Compound 166, (R)-4-(2-chloro-4-fluorophenyl)-7-((1-(4-(2-chloroacetyl)piperazin-1-yl)-1-oxopropan-2-yl)oxy)-2H-chromen-2-one] | < 10 | < 20
C[C@@H](Oc1ccc2c(-c3ccc(F)cc3Cl)cc(=O)oc2c1)C(=O)N1CCC[C@H](NC(=O)CCl)C1 [Compound 167, 2-chloro-N-[(3S)-1-[(2R)-2-[4-(2-chloro-4-fluoro-phenyl)-2-oxo-chromen-7-yl]oxypropanoyl]-3-piperidyl]acetamide] | < 10 | < 20
CCC(=O)N1CCN(C(=O)[C@@H](C)Oc2ccc3c(-c4ccc(F)cc4Cl)cc(=O)oc3c2)CC1 [Compound 168, 4-(2-chloro-4-fluoro-phenyl)-7-[(1R)-1-methyl-2-oxo-2-(4-propanoylpiperazin-1-yl)ethoxy]chromen-2-one] | < 10 | < 20
CCC(=O)N[C@H]1CCCN(C(=O)[C@@H](C)Oc2ccc3c(-c4ccc(F)cc4Cl)cc(=O)oc3c2)C1 [Compound 169, N-[(3S)-1-[(2R)-2-[4-(2-chloro-4-fluoro-phenyl)-2-oxo-chromen-7-yl]oxypropanoyl]-3-piperidyl]propanamide] | < 10 | < 20
C[C@@H](Oc1ccc2c(-c3ccccc3Cl)cc(=O)oc2n1)C(=O)N1CCC[C@H](C(=O)O)C1 [Compound 172, (3S)-1-[(2R)-2-[4-(2-chlorophenyl)-2-oxo-pyrano[2,3-b]pyridin-7-yl]oxypropanoyl]piperidine-3-carboxylic acid] | 50 to 500 | 20 to 100

— patent US11111238B2, “Coumarin derivatives, processes for their preparation and uses thereof for the treatment of cancer” (Lead Discovery Center GmbH, priority 2017, dated 2021)
